{
  "source": "patent US20190022166A1",
  "about": "“ORAL ANTI-INFLAMMATORY PEPTIDES TO TREAT EPILEPSY, SEIZURES AND CNS DISORDERS” (Creative Bio-Peptides Inc., priority 2017, published 2019)",
  "key": {"NFkB": {"system": "NFkB", "details": "Hu; phenotype M1; cited from earlier work"}, "IL-6 [1]": {"system": "IL-6", "details": "Hu; phenotype M1; cited from earlier work"}, "IL-23": {"system": "IL-23", "details": "Hu; phenotype M1; cited from earlier work"}, "IL-1": {"system": "IL-1", "details": "Hu; phenotype M1; cited from earlier work"}, "TLR4/MyD88 [2]": {"system": "TLR4/MyD88", "details": "Rat; phenotype M1; cited from earlier work"}, "IL-13": {"system": "IL-13", "details": "Hu; phenotype M2; cited from earlier work"}, "CCL5": {"system": "CCL5", "details": "mouse synaptosomes; cited from earlier work"}, "STAT3": {"system": "STAT3", "details": "Hu; phenotype M1; cited from earlier work"}, "[3]": {"details": "humans, neuro-AIDS; cited from earlier work"}, "activated microglia": {"system": "activated microglia", "test": "Pre-clinical animal models: neuron loss with aging, activated microglial neurotoxicity", "type": "in vivo", "from_the_text": "In humans DAPTA improved cognition, speed of information processing and functional brain imaging in neuro-AIDS (24, 25). Therefore, it is believed that the compounds according to the present invention have a strong potential to improve cognitive deficits in the indicated conditions due to shared neurodegenerative inflammatory mechanisms."}, "IL-4": {"system": "IL-4", "details": "Hu; phenotype M2; cited from earlier work"}, "TNFα [4]": {"system": "TNFα", "details": "Hu; phenotype M1; cited from earlier work"}, "IL-8": {"system": "IL-8", "details": "Hu; phenotype M1; cited from earlier work"}, "IL-10": {"system": "IL-10", "details": "Hu; phenotype M2; cited from earlier work"}, "ICAM-1": {"system": "ICAM-1", "details": "Hu; phenotype M1; cited from earlier work"}, "response to bradykinin": {"system": "response to bradykinin", "details": "amounts up to 50,000 times the standard challenge of bradykinin; cited from earlier work"}, "IL-1β": {"system": "IL-1β", "details": "Rat, nerve injured, oral gavage 0.05-1 mg/kg for 7 days, M1", "from_the_text": "(§1) The specific experimental details are provided in Padi, 2012 (12)."}, "CCR5 [5]": {"system": "CCR5", "details": "Rat, nerve injured, oral gavage 0.05-1 mg/kg for 7 days, M1", "from_the_text": "as §1"}, "CCR2 [6]": {"system": "CCR2", "details": "Rat, nerve injured, oral gavage 0.05-1 mg/kg for 7 days, M1", "from_the_text": "as §1"}, "MCP-1 (CCL2)": {"system": "MCP-1 (CCL2)", "details": "Rat, nerve injured, oral gavage 0.05-1 mg/kg for 7 days, M1", "from_the_text": "as §1"}, "TNFα [7]": {"system": "TNFα", "details": "Rat, nerve injured, oral gavage 0.05-1 mg/kg for 7 days, M1", "from_the_text": "as §1"}, "IL-6 [8]": {"system": "IL-6", "details": "Rat, nerve injured; oral gavage 0.05-1 mg/kg for 7 days; M1", "from_the_text": "as §1"}, "MIP-1α (CCL3)": {"system": "MIP-1α (CCL3)", "details": "Rat, nerve injured, oral gavage 0.05-1 mg/kg for 7 days, M1", "from_the_text": "as §1"}, "CCR2 [9]": {"biological_target": "T1, CCR2 (Homo sapiens, UniProt P41597)", "T1 sequence (P41597 1-360 isoform P41597-2)": "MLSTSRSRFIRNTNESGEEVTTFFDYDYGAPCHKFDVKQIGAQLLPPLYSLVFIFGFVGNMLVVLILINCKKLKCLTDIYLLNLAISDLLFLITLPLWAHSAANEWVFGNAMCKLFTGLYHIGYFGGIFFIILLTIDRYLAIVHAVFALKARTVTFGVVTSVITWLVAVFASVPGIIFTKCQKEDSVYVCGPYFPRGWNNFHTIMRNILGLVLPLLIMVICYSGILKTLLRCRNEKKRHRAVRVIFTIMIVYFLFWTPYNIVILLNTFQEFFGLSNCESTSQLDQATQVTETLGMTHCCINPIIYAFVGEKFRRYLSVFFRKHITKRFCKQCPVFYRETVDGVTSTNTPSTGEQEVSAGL", "details": "30 min pretreatment, CCL2 50 ng/mL for 90 min, FIG. 2, cited from earlier work"}, "TLR4/MyD88 [10]": {"system": "TLR4/MyD88", "details": "iDCs, peptide 10-12 M for 30 min, then LPS 100 ng/ml, 48 hrs", "experimental": "(§2) To determine whether all-D-TTNYT (SEQ ID NO:1) blocks maturation of antigen-presenting dendritic cells, human PBMC's were isolated from peripheral blood by Ficoll-Paque centrifugation and then monocytes were isolated by negative selection using immunobeads (Miltenyi). Human monocyte derived immature dendritic cells (iDCs) were then generated by treating monocytes with GM-CSF/IL4.\nThe iDCs were treated with all-D-TTNYT (SEQ ID NO:1), generic name RAP103 (12), at 10-12 M for 30 min. After 30 min LPS (100 ng/ml) was added to the cells and cells were analyzed after 48 hrs. for surface maturation markers using fluorescent labeled antibodies by flow cytometry."}, "CCR5 [11]": {"biological_target": "CCR5 (Homo sapiens, UniProt P51681)", "sequence (P51681 whole entry)": "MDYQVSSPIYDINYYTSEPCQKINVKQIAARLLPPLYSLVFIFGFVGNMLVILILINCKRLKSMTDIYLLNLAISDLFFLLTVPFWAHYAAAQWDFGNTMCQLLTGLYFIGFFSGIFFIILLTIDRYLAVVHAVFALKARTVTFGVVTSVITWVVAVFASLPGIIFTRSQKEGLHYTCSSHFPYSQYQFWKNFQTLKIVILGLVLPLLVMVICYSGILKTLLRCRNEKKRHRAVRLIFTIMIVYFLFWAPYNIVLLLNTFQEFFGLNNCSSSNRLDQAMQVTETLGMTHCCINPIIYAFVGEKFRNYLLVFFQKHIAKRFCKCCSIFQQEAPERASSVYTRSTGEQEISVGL", "details": "30 min pretreatment, CCL4 50 ng/mL for 90 min, FIG. 2, cited from earlier work"}, "[12]": {"biological_target": "insulin-like growth factor 1 receptor (IGF-1R) (Homo sapiens, UniProt P08069)", "sequence (P08069 31-736 limits assumed)": "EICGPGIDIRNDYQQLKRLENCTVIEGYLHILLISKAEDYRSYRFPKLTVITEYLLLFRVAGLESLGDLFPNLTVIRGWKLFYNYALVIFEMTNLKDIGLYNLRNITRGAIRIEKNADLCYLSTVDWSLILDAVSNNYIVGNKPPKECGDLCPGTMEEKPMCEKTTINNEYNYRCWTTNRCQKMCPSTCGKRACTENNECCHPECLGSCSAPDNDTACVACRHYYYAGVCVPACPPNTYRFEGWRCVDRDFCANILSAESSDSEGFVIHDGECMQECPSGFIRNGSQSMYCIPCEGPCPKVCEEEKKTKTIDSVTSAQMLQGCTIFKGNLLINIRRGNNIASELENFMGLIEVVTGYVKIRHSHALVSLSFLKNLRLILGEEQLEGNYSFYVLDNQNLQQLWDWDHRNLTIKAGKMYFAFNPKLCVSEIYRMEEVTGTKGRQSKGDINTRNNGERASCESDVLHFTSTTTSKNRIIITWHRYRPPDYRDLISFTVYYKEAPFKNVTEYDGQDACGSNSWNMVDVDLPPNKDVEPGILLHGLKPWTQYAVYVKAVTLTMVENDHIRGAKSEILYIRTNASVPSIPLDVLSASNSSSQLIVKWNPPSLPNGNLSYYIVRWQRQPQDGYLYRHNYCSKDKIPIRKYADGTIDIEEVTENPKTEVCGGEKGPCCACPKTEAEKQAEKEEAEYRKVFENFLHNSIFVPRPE", "experimental": "as §2\nThe iDCs were treated with all-D-TTNYT (SEQ ID NO:1), generic name RAP103 (12), at 10-12 M for 30 min. […]"}, "CCR2 [13]": {"biological_target": "T1, CCR2", "test": "CCL2 (MCP-1) elicited chemotaxis of human monocytes", "type": "cell-based", "set-up": "endogenous in cells; host or cells: human monocytes", "details": "FIG. 3; methods similar to FIG. 2; low concentration", "experimental": "Monocytes were treated with the indicated doses of RAP-103 for 30 min before chemotaxis against human CCL2 (MCP-1) or CCL4 (MIP-1β) (both 50 ng/mL) for 90 min. Data (chemotactic index) are presented as mean ±SEM. The chemotactic index for MCP-1 without RAP-103 was 2.5-3.5 times over control, whereas for MIP-1 ? without RAP-103, it was approximately 2 times over control. Data are presented as mean ±SEM. (*P<0.05, **P<0.01 vs RAP-103 untreated). Data are from (12), FIG. 1. […] Dual-chemokine CCR2/CCR5 receptor antagonists may have added therapeutic value by blocking multiple inflammatory pathways.\nThe methods employed are similar to those in FIG. 2."}, "[14]": {"biological_target": "CCR2 receptor on human monocytes (human) (UniProt P41597)", "test": "cell-based or functional assay"}, "[15]": {"biological_target": "CCR5 receptor on human monocytes (human) (UniProt P51681)", "test": "cell-based or functional assay"}, "[16]": {"details": "listed as all-D-pentapeptide TTNYT"}},
  "note": "Entries after “also recorded” stand apart in the source; their conditions may differ. Like-named read-outs stand apart in the source and are kept apart here. Where no end group is shown, it is not given here. [ ]: non-standard residue; d: D form.",
  "data": [
    {"substance": "Dala1-peptide T-amide [DAPTA]", "values": [
      {"measurement": "NFkB Change", "setting": "NFkB", "result": "decrease"},
      {"measurement": "IL-6 Change", "setting": "IL-6 [1]", "result": "reduced; also recorded: decrease"},
      {"measurement": "IL-23 Change", "setting": "IL-23", "result": "decrease"},
      {"measurement": "IL-1 Change", "setting": "IL-1", "result": "reduced; also recorded: decrease"},
      {"measurement": "TLR4/MyD88 Change", "setting": "TLR4/MyD88 [2]", "result": "decrease"},
      {"measurement": "IL-13 Change", "setting": "IL-13", "result": "elevated; also recorded: increase"},
      {"measurement": "CCL5 facilitated release of aspartate", "setting": "CCL5", "result": "blocked"},
      {"measurement": "STAT3 Change", "setting": "STAT3", "result": "decrease"},
      {"measurement": "cognition", "setting": "[3]", "result": "improved"},
      {"measurement": "functional brain imaging", "setting": "[3]", "result": "improved"},
      {"measurement": "speed of information processing", "setting": "[3]", "result": "improved"},
      {"measurement": "activated microglial mediated neurotoxicity and release of cytokines and chemokines", "setting": "activated microglia", "result": "blocked"},
      {"measurement": "loss of neurons with aging", "setting": "activated microglia", "result": "prevented"},
      {"measurement": "IL-4 Change", "setting": "IL-4", "result": "elevated; also recorded: increase"},
      {"measurement": "TNFα Change", "setting": "TNFα [4]", "result": "reduced; also recorded: decrease"},
      {"measurement": "IL-8 Change", "setting": "IL-8", "result": "reduced; also recorded: decrease"},
      {"measurement": "IL-10 Change", "setting": "IL-10", "result": "elevated; also recorded: increase"},
      {"measurement": "ICAM-1 Change", "setting": "ICAM-1", "result": "decrease"}
    ]},
    {"substance": "all-D-bradykinin", "values": [
      {"measurement": "inhibition of the response to bradykinin or bradykinin-like effect", "setting": "response to bradykinin", "result": "neither any inhibition of the response to bradykinin, or any bradykinin-like effect"}
    ]},
    {"substance": "all-D-TTNYT", "values": [
      {"measurement": "IL-1β Change", "setting": "IL-1β", "result": "decrease"},
      {"measurement": "IL-1β Change", "setting": "IL-1β; [16]", "result": "lowering"},
      {"measurement": "CCR5 Change", "setting": "CCR5 [5]", "result": "decrease"},
      {"measurement": "CCR5 Change", "setting": "CCR5 [5]; [16]", "result": "lowering"},
      {"measurement": "CCR2 Change", "setting": "CCR2 [6]", "result": "decrease"},
      {"measurement": "CCR2 Change", "setting": "CCR2 [6]; [16]", "result": "lowering"},
      {"measurement": "MCP-1 (CCL2) Change", "setting": "MCP-1 (CCL2)", "result": "decrease"},
      {"measurement": "MCP-1 (CCL2) Change", "setting": "MCP-1 (CCL2); [16]", "result": "lowering"},
      {"measurement": "TNFα Change", "setting": "TNFα [7]", "result": "decrease"},
      {"measurement": "TNFα Change", "setting": "TNFα [7]; [16]", "result": "lowering"},
      {"measurement": "IL-6 Change", "setting": "IL-6 [8]", "result": "decrease"},
      {"measurement": "MIP-1α (CCL3) Change", "setting": "MIP-1α (CCL3)", "result": "decrease"},
      {"measurement": "MIP-1α (CCL3) Change", "setting": "MIP-1α (CCL3); [16]", "result": "lowering"},
      {"measurement": "MCP-1 (CCL2)-elicited chemotaxis of human monocytes", "setting": "CCR2 [9]", "result": "potently blocking"},
      {"measurement": "MCP-1 (CCL2)-elicited chemotaxis of human monocytes", "setting": "CCR2 [9]; listed as RAP-103", "result": "dual-antagonist"},
      {"measurement": "CD58 (adhesion molecule) expression", "setting": "TLR4/MyD88 [10]", "result": "reduced"},
      {"measurement": "CD86 expression", "setting": "TLR4/MyD88 [10]", "result": "reduced"},
      {"measurement": "HLA-DR expression", "setting": "TLR4/MyD88 [10]", "result": "reduced"},
      {"measurement": "ICAM1 (adhesion molecule) expression", "setting": "TLR4/MyD88 [10]", "result": "reduced"},
      {"measurement": "TLR4-mediated maturation of antigen presenting dendritic cells", "setting": "TLR4/MyD88 [10]", "result": "blocks"},
      {"measurement": "MIP-1β (CCL4)-elicited chemotaxis of human monocytes", "setting": "CCR5 [11]", "result": "potently blocking"},
      {"measurement": "MIP-1β (CCL4)-elicited chemotaxis of human monocytes", "setting": "CCR5 [11]; listed as RAP-103", "result": "dual-antagonist"},
      {"measurement": "DC maturation of these four markers caused by LL37", "setting": "[12]", "result": "no effect"}
    ]},
    {"substance": "all-D-SSTYR: all-D-version of DAPTA related pentapeptide SSTYR ([dS][dS][dT][dY][dR])", "values": [
      {"measurement": "CCL2 (MCP-1) human monocyte chemotaxis", "setting": "CCR2 [13]", "result": "antagonists"}
    ]},
    {"substance": "all-D-TTSYT: all-D-version of DAPTA related pentapeptide TTSYT ([dT][dT][dS][dY][dT])", "values": [
      {"measurement": "CCL2 (MCP-1) human monocyte chemotaxis", "setting": "CCR2 [13]", "result": "antagonists"}
    ]},
    {"substance": "human CCL2 (MCP-1) (from UniProt P13500 24-99) (ligand)", "values": [
      {"measurement": "chemotactic index of human monocytes, without RAP-103 (times over control)", "setting": "[14]", "result": "2.5 to 3.5"}
    ]},
    {"substance": "all-D-NTSYR: all-D-version of DAPTA related pentapeptide NTSYR ([dN][dT][dS][dY][dR])", "values": [
      {"measurement": "CCL2 (MCP-1) human monocyte chemotaxis", "setting": "CCR2 [13]", "result": "antagonists"}
    ]},
    {"substance": "CCL4 (MIP-1β) (from UniProt P13236 24-92) (ligand)", "values": [
      {"measurement": "chemotactic index of human monocytes, without RAP-103 (times over control)", "setting": "[15]", "result": 2}
    ]}
  ]
}
